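In this assay, cells in 96-well plates receive the compound at five concentrations for 48 hours. Endpoints are linearly interpolated between the surrounding concentrations. GI50 marks 50% less growth.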 Active and inactive are the calls of the source. Rule as the data show it: active = GI50 up to about 1.1 µM and inactive = higher.
Legend:
Experiment in all cases: NCI-60 cell line screen, 48 h
SF-268 = test system: SF-268
SK-MEL-2 = test system: SK-MEL-2
MCF7 = test system: MCF7
DU-145 = test system: DU-145
OVCAR-4 = test system: OVCAR-4
786-0 = test system: 786-0
NCI-H522 = test system: NCI-H522
OVCAR-3 = test system: OVCAR-3
COLO 205 = test system: COLO 205
ACHN = test system: ACHN
SN12C = test system: SN12C
M14 = test system: M14
MDA-N = test system: MDA-N
HOP-62 = test system: HOP-62
HL-60 = test system: HL-60
SK-MEL-5 = test system: SK-MEL-5
UACC-62 = test system: UACC-62
Malme-3M = test system: Malme-3M
SW-620 = test system: SW-620
RXF 393 = test system: RXF 393

Compound | GI50 (SF-268) | GI50 (SK-MEL-2) | GI50 (MCF7) | GI50 (DU-145) | GI50 (OVCAR-4) | GI50 (786-0) | GI50 (NCI-H522) | GI50 (OVCAR-3) | GI50 (COLO 205) | GI50 (ACHN) | GI50 (SN12C) | GI50 (M14) | GI50 (MDA-N) | GI50 (HOP-62) | GI50 (HL-60) | GI50 (SK-MEL-5) | GI50 (UACC-62) | GI50 (Malme-3M) | GI50 (SW-620) | GI50 (RXF 393)
NC(=O)C1=CC2C3C=CC2(O)C(=O)OC3O1 (stereo not given) | 3.73 µM (inactive) | 3.57 µM (inactive) | 3.28 µM (inactive) | 3.89 µM (inactive) | 4.33 µM (inactive) | 3.63 µM (inactive) | 1.83 µM (inactive) | 2.43 µM (inactive) | 3.71 µM (inactive) | 3.44 µM (inactive) | 4.28 µM (inactive) | 2.97 µM (inactive) | 2.61 µM (inactive) | 9.06 µM (inactive) | 1.5 µM (inactive) | 2.38 µM (inactive) | 2.71 µM (inactive) | 1.82 µM (inactive) | 4.02 µM (inactive) | 2.52 µM (inactive)
OC1c2c(ccc3c2CCC3)CC12Cc1ccccc1C2 (stereo not given) | 14.7 µM (inactive) | 15.3 µM (inactive) | 18 µM (inactive) | 16.3 µM (inactive) | 16.4 µM (inactive) | 17.1 µM (inactive) | 16.3 µM (inactive) | 13.6 µM (inactive) | 16.3 µM (inactive) | 16.8 µM (inactive) | 15.3 µM (inactive) | 15.3 µM (inactive) | 15.5 µM (inactive) | 16.4 µM (inactive) | 15.9 µM (inactive) | 15.6 µM (inactive) | 15.4 µM (inactive) | 12 µM (inactive) | 17.7 µM (inactive) | 13.8 µM (inactive)
c1ccc(-c2c[nH]c(SC(c3ccccc3)c3ccccc3)n2)cc1 | 43.8 µM (inactive) | 16.9 µM (inactive) | 20.3 µM (inactive) | 23.4 µM (inactive) | 23.4 µM (inactive) | 32.1 µM (inactive) | 17.1 µM (inactive) | 33.4 µM (inactive) | 13 µM (inactive) | 24.5 µM (inactive) | 17.4 µM (inactive) | 30.8 µM (inactive) | 20.7 µM (inactive) | 29 µM (inactive) | 11.1 µM (inactive) | 12.4 µM (inactive) | 14.2 µM (inactive) | 15 µM (inactive) | 27.6 µM (inactive) | 15.8 µM (inactive)
O=C1C(O)=C(CC=C(Cl)Cl)C(=O)c2ccccc21 | 11.7 µM (inactive) | 17.7 µM (inactive) | 8.87 µM (inactive) | 23.8 µM (inactive) | 21.7 µM (inactive) | 6.17 µM (inactive) | 14 µM (inactive) | 13.5 µM (inactive) | 19.5 µM (inactive) | 12.3 µM (inactive) | 12.9 µM (inactive) | 12.6 µM (inactive) | 16.4 µM (inactive) | 12.4 µM (inactive) | 2.07 µM (inactive) | 8 µM (inactive) | 4.91 µM (inactive) | 10.8 µM (inactive) | 8.93 µM (inactive) | 28.7 µM (inactive)
COc1cc(/C=C2\CCC(CN(C)C)C2=O)ccc1OC(=O)c1ccccc1 (stereo not given) | 12.3 µM (inactive) | 17.9 µM (inactive) | 6.25 µM (inactive) | 16.3 µM (inactive) | 12.4 µM (inactive) | 3.76 µM (inactive) | 4 µM (inactive) | 8.91 µM (inactive) | 5.69 µM (inactive) | 15.3 µM (inactive) | 10.8 µM (inactive) | 9.51 µM (inactive) | 15.4 µM (inactive) | 16.3 µM (inactive) | 1.91 µM (inactive) | 15.5 µM (inactive) | 16.5 µM (inactive) | 15.9 µM (inactive) | 5.07 µM (inactive) | 7.8 µM (inactive)
NCC(Cc1ccccc1)P(=O)(O)O (stereo not given) | > 100 µM (inactive) | > 100 µM (inactive) | > 100 µM (inactive) | > 100 µM (inactive) | > 100 µM (inactive) | > 100 µM (inactive) | > 100 µM (inactive) | > 100 µM (inactive) | > 100 µM (inactive) | > 100 µM (inactive) | > 100 µM (inactive) | > 100 µM (inactive) | > 100 µM (inactive) | > 100 µM (inactive) | > 100 µM (inactive) | > 100 µM (inactive) | > 100 µM (inactive) | > 100 µM (inactive) | > 100 µM (inactive) | > 100 µM (inactive)
CCC(=O)C(CCN1CCC2(CCCc3ccccc32)CC1)(c1ccccc1)c1ccccc1 | 5.92 µM (inactive) | 2 µM (inactive) | 2.86 µM (inactive) | 3.1 µM (inactive) | 3.52 µM (inactive) | 2.12 µM (inactive) | 1.75 µM (inactive) | 2.2 µM (inactive) | 1.34 µM (inactive) | 2.85 µM (inactive) | 2.29 µM (inactive) | 1.87 µM (inactive) | 3.96 µM (inactive) | 3.28 µM (inactive) | 1.57 µM (inactive) | 1.49 µM (inactive) | 3.72 µM (inactive) | 1.91 µM (inactive) | 2.87 µM (inactive) | 2 µM (inactive)
CC(C)(N)C(=O)N[C@@H]1C(=O)N2[C@@H]1SC(C)(C)[C@@H]2C(=O)O | > 100 µM (inactive) | > 100 µM (inactive) | > 100 µM (inactive) | > 100 µM (inactive) | > 100 µM (inactive) | > 100 µM (inactive) | > 100 µM (inactive) | > 100 µM (inactive) | > 100 µM (inactive) | > 100 µM (inactive) | > 100 µM (inactive) | > 100 µM (inactive) | > 100 µM (inactive) | > 100 µM (inactive) | < 0.01 µM (active) | > 100 µM (inactive) | > 100 µM (inactive) | > 100 µM (inactive) | > 100 µM (inactive) | > 100 µM (inactive)
C=Cc1nc2c(Cl)ncnc2n1Cc1ccccc1 | 6.35 µM (inactive) | 12.1 µM (inactive) | 1.55 µM (inactive) | 2.17 µM (inactive) | 2.76 µM (inactive) | 1.6 µM (inactive) | 1.89 µM (inactive) | 2.58 µM (inactive) | 1.53 µM (inactive) | 1.86 µM (inactive) | 6.43 µM (inactive) | 3.88 µM (inactive) | 3.12 µM (inactive) | 3.34 µM (inactive) | 2.72 µM (inactive) | 2.54 µM (inactive) | 6.68 µM (inactive) | 4.03 µM (inactive) | 5.94 µM (inactive) | 2.69 µM (inactive)
Cc1ccc(S(=O)(=O)N/C(=N\O)Nc2ccc(Cl)c(Cl)c2)cc1 | 6.01 µM (inactive) | 10.2 µM (inactive) | 17.5 µM (inactive) | 12 µM (inactive) | 6.46 µM (inactive) | 4.6 µM (inactive) | 4.47 µM (inactive) | 4.41 µM (inactive) | 17.1 µM (inactive) | 11.9 µM (inactive) | 2.12 µM (inactive) | 5.58 µM (inactive) | 3.57 µM (inactive) | 14.1 µM (inactive) | 1.87 µM (inactive) | 2.05 µM (inactive) | 11.7 µM (inactive) | 2.07 µM (inactive) | 11.2 µM (inactive) | 9.84 µM (inactive)
CC(C)(C)c1ccc(-c2nc3ccc([N+](=O)[O-])cc3c(=O)o2)cc1 | 35.7 µM (inactive) | 20.7 µM (inactive) | 34.1 µM (inactive) | 32.7 µM (inactive) | 17.6 µM (inactive) | 26.8 µM (inactive) | 20.1 µM (inactive) | 27.4 µM (inactive) | 24.4 µM (inactive) | 21.9 µM (inactive) | 40.1 µM (inactive) | 26.5 µM (inactive) | 31.6 µM (inactive) | 22.2 µM (inactive) | 25.5 µM (inactive) | 27.2 µM (inactive) | 24.5 µM (inactive) | 28.9 µM (inactive) | 31 µM (inactive) | 42.6 µM (inactive)

From ChEMBL document CHEMBL1201862, “PubChem BioAssay data set” (2004)
